Measured values: PMC9378504 (Journal of medicinal chemistry, 2022)

Legend:
NSD2 [1] = molecular target: T1, NSD2 (Homo sapiens, UniProt O96028); experiment: Western blotting of NSD2 protein level in 293FT cells; format: cell-based
T1 sequence (O96028 1-1365): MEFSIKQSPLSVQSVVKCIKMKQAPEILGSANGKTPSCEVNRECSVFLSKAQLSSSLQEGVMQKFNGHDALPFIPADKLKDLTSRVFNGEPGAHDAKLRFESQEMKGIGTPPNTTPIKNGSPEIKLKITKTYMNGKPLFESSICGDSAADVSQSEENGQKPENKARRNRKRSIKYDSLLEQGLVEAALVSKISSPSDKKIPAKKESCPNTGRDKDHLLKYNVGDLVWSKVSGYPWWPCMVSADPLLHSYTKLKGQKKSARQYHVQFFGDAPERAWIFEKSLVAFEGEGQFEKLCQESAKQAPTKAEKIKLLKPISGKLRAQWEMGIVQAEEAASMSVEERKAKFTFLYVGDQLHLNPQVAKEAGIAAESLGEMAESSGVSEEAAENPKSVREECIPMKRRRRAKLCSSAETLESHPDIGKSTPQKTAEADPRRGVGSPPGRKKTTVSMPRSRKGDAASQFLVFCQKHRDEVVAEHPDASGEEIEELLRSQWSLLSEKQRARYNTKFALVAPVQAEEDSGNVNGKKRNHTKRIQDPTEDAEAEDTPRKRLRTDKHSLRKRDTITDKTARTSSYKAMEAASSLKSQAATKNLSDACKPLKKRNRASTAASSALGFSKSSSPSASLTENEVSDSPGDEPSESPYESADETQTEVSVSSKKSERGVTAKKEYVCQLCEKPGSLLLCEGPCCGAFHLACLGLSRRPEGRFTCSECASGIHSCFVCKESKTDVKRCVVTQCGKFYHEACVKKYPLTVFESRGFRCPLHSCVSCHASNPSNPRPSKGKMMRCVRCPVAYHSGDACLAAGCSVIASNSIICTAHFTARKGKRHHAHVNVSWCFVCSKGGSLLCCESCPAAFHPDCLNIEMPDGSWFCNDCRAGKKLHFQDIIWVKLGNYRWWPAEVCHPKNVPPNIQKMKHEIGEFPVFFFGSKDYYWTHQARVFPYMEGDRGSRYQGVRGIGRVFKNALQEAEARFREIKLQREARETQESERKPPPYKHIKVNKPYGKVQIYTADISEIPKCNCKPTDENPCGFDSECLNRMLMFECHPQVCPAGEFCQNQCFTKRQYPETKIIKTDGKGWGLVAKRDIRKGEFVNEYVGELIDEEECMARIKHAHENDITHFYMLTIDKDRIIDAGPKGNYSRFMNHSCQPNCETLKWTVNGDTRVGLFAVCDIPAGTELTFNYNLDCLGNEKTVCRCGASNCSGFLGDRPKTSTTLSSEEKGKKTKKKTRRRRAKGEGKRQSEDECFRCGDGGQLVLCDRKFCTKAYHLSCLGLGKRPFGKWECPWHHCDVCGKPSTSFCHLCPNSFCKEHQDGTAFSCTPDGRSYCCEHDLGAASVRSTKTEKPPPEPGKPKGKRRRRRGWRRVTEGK

NSD2 [2] = molecular target: T1, NSD2; experiment: Western blotting of NSD2 protein level in CRBN KO 293FT cells; format: cell-based; details: 293FT cells with CRISPR-Cas9-mediated KO of CRBN, range of concentrations, 48 h
IKZF3 [3] = molecular target: T2, IKZF3 (Homo sapiens, UniProt Q96SW2+Q9UKT9); experiment: Western blotting of IKZF3 protein level in 293FT cells; format: cell-based; details: for IKZF3 protein level after pretreatment: 293FT cells, then 5 μM for 6 h
T2 sequence (Q9UKT9 whole entry): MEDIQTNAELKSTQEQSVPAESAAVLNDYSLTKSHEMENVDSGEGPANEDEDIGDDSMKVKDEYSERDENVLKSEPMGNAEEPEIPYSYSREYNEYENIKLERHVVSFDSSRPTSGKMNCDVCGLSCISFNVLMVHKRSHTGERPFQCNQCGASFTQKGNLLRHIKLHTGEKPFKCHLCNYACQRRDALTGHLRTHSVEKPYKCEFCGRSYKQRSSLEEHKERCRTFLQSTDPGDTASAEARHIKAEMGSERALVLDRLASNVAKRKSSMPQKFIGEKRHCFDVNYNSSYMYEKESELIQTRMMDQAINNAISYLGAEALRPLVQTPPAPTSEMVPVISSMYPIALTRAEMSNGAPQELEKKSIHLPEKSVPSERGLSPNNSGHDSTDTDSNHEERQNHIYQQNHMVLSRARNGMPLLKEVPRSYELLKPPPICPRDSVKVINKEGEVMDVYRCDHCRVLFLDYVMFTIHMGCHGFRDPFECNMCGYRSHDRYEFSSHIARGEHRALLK
T2 sequence (Q96SW2 whole entry): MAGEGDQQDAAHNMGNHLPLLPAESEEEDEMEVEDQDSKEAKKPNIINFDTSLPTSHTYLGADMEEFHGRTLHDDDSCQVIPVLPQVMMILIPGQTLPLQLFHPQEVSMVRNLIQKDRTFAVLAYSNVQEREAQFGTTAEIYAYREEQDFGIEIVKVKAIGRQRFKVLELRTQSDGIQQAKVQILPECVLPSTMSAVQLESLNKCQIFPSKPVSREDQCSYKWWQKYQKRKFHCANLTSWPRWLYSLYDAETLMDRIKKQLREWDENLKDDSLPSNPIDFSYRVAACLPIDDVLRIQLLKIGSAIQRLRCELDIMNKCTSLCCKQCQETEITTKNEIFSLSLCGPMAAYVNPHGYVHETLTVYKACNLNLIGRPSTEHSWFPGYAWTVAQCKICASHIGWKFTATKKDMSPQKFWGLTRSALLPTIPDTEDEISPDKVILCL
T2 sequence (Q16531 whole entry partner): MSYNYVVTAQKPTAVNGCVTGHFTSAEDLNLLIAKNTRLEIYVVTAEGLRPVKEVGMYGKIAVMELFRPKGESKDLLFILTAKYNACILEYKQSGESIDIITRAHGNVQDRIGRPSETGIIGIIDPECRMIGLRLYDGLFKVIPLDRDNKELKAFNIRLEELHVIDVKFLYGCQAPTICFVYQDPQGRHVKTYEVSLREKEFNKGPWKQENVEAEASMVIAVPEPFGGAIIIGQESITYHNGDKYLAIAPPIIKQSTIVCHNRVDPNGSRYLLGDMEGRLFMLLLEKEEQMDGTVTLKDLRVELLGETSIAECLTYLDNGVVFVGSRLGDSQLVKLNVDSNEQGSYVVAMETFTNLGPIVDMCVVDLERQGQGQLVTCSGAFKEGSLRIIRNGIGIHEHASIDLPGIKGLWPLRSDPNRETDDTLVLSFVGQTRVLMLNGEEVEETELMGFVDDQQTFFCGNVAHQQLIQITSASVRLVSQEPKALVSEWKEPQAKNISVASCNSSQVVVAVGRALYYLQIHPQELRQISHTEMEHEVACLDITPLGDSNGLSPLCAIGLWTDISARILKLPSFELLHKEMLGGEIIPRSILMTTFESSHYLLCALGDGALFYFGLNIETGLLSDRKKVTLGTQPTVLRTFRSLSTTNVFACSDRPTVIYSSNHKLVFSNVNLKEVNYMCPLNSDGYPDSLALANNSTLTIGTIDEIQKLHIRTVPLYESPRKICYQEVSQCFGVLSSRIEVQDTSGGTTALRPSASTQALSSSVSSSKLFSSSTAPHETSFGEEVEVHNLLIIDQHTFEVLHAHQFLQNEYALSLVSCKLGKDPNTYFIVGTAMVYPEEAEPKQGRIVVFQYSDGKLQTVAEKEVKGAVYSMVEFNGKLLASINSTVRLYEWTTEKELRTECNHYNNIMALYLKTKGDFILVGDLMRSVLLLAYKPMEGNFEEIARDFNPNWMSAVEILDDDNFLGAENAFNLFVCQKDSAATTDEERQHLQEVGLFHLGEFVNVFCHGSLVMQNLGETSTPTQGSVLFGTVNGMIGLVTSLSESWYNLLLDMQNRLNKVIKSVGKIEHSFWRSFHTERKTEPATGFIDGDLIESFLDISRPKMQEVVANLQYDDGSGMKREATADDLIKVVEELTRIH

IKZF3 [4] = molecular target: T2, IKZF3; experiment: Western blotting of IKZF3 protein level in CRBN KO 293FT cells; format: cell-based; details: 293FT cells with CRISPR-Cas9-mediated KO of CRBN, range of concentrations, 48 h
NSD2 [5] = molecular target: T1, NSD2; experiment: Western blotting of NSD2 protein level in KMS11 cells; format: cell-based; details: 2.5 μM, 72 h
NSD2 [6] = molecular target: T1, NSD2; experiment: Western blotting of NSD2 protein level in H929 cells; format: cell-based; details: 2.5 μM, 72 h
GSPT1 [7] = experiment: Western blotting of GSPT1 protein level in KMS11 cells; format: cell-based, Human; details: 2.5 μM, 72 h
GSPT1 [8] = experiment: Western blotting of GSPT1 protein level in H929 cells; format: cell-based, Human; details: 2.5 μM, 72 h
IKZF1 [9] = molecular target: T3, IKZF1 (Homo sapiens, UniProt Q13422+Q96SW2); experiment: Western blotting of IKZF1 protein level in KMS11 cells; format: cell-based; details: for IKZF1 degradation after pretreatment: then 5 μM for 6 h
T3 sequence (Q13422 whole entry): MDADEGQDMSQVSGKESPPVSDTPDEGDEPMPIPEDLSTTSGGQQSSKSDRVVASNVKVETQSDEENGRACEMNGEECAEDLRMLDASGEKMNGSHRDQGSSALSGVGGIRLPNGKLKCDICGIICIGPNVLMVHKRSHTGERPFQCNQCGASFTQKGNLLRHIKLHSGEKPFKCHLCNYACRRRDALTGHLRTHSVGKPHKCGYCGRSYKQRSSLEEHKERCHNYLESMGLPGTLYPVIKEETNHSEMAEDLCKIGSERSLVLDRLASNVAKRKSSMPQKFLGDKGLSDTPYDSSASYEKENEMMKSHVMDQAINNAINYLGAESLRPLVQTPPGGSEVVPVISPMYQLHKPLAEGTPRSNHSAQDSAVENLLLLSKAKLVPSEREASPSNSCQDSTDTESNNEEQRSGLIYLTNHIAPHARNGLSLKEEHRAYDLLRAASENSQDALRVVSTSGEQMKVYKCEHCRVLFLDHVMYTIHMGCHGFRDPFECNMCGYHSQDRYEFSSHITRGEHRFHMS
T3 sequence (Q96SW2 whole entry): as the sequence (Q96SW2 whole entry) above
T3 sequence (Q16531 whole entry partner): as the sequence (Q16531 whole entry partner) above

IKZF1 [10] = molecular target: T3, IKZF1; experiment: Western blotting of IKZF1 protein level in H929 cells; format: cell-based; details: 2.5 μM, 72 h
IKZF3 [11] = molecular target: T2, IKZF3; experiment: Western blotting of IKZF3 protein level in KMS11 cells; format: cell-based; details: then 5 μM for 6 h
[12] = test system: 20 protein lysine and arginine methyltransferases including NSD1/2/3; experiment: Selectivity assay, radioisotope-based filter binding; format: biochemical, human; details: 10 μM, in duplicate, SAM 1 μM
KMS11 cells = experiment: Cell growth inhibition assay in KMS11 cells; format: cell-based, Human; details: 2.5 μM, 8 days
H929 cells = experiment: Cell growth inhibition assay in H929 cells; format: cell-based, Human; details: 2.5 μM, 8 days
Mouse PK study = format: in vivo; details: single IP 50 mg/kg, male Swiss albino mice
[13] = WT 293FT cells, range of concentrations, 48 h
[14] = pretreated with 10 nM MLN9708 for 2 h
[15] = pretreated with 0.5 μM MLN4924 for 2 h

NSD2 protein level on cotreatment (NSD2 [1]; 293FT cells, 5 μM for 48 h, cotreated with 5 μM UNC6934 during the last 6 h): significantly rescued | NSD2 degradation, time course (NSD2 [1]; 293FT cells, 5 μM, 36 h): some NSD2 degradation | NSD2 degradation, time course (NSD2 [1]; 293FT cells, 5 μM, 48 h): significant degradation | NSD2 degradation, time course (NSD2 [1]; 293FT cells, 5 μM, 72 h): maximum degradation effect | NSD2 protein level after washout (NSD2 [1]; 293FT cells, 5 μM, then washout, 48 h post washout): fully recovered | NSD2 degradation (NSD2 [5]): effectively degraded NSD2 | NSD2 degradation (NSD2 [6]): effectively degraded NSD2 | IKZF1 protein level (IKZF1 [9]; 2.5 μM, 72 h): clearly reduced the IKZF1 protein level | IKZF1 protein level (IKZF1 [10]): clearly reduced the IKZF1 protein level | clinical signs (Mouse PK study; PK study): no clinical signs were observed | maximum plasma concentration (Mouse PK study; mean ± SD from three mice): 1.35 ± 0.08 µM
SMILES: O=C(CNc1cccc2c1C(=O)N(C1CCC(=O)NC1=O)C2=O)NCCCOc1ccc(NC(=O)c2ccc(CN(C(=O)c3ccc4c(c3)OCC(=O)N4)C3CC3)cc2)nc1 (stereo not shown) [Compound 9, N-Cyclopropyl-N-(4-((5-(3-(2-((2-(2,6-dioxopiperidin-3-yl)-1,3-dioxoisoindolin-4-yl)amino)acetamido)propoxy)pyridin-2-yl)-carbamoyl)benzyl)-3-oxo-3,4-dihydro-2H-benzo[b][1,4]oxazine-7-carboxamide]
NSD2 protein level (NSD2 [1]; 293FT cells, 2.5 and 10 μM, 48 h, Figure 2): effectively induced degradation of NSD2 at both 2.5 and 10 μM without a hook effect | NSD2 degradation (NSD2 [1]; [13]): clear degradation of NSD2 and IKZF3 was observed | NSD2 degradation (NSD2 [2]): no NSD2 or IKZF3 degradation was detected | IKZF3 protein level after pretreatment (IKZF3 [3]; [14]): successfully restored the IKZF3 protein level | IKZF3 protein level after pretreatment (IKZF3 [3]; [15]): successfully restored the IKZF3 protein level | IKZF3 degradation (IKZF3 [3]; [13]): clear degradation of NSD2 and IKZF3 was observed | IKZF3 degradation (IKZF3 [4]): no NSD2 or IKZF3 degradation was detected | GSPT1 degradation (GSPT1 [7]): did not degrade GSPT1 | GSPT1 degradation (GSPT1 [8]): did not degrade GSPT1 | IKZF1 degradation after pretreatment (IKZF1 [9]; [14]): at least partially rescued the IKZF1 and IKZF3 degradation | IKZF1 degradation after pretreatment (IKZF1 [9]; [15]): at least partially rescued the IKZF1 and IKZF3 degradation | IKZF3 degradation after pretreatment (IKZF3 [11]; [14]): at least partially rescued the IKZF1 and IKZF3 degradation | IKZF3 degradation after pretreatment (IKZF3 [11]; [15]): at least partially rescued the IKZF1 and IKZF3 degradation | Inhibition of 20 methyltransferases (selectivity) [12]: did not inhibit any of the 20 methyltransferases | Cell growth inhibition (KMS11 cells): effectively inhibited the growth | Cell growth inhibition (H929 cells): effectively inhibited the growth | tolerability (Mouse PK study; PK study): well tolerated
